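Five compound concentrations were applied to cells in 96-well plates for 48 hours; endpoints were derived by simple linear interpolation of the resulting dose-response curve. Here, GI50 denotes the concentration required for 50% inhibition of growth.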 Calls of active or inactive are those of the source. No stated cut-off is given here; in the data, active = GI50 up to about 1.1 µM and inactive = higher.
Key:
Test in all cases: NCI anticancer screen, dose series, 48 h
BT-549 = tested on: BT-549
DLD-1 = tested on: DLD-1
KM-20L2 = tested on: KM-20L2
LXFL 529 = tested on: LXFL 529
XF498 = tested on: XF498
Hs-578T = tested on: Hs-578T
DMS-273 = tested on: DMS-273

CC1=NN(C(=O)c2ccccc2O)C(=O)/C1=C/c1ccccc1O
GI50 (BT-549): 0.438 µM (active)
GI50 (DLD-1): 0.0807 µM (active)
GI50 (KM-20L2): 11.5 µM (inactive)
GI50 (LXFL 529): 0.0573 µM (active)
GI50 (XF498): 0.365 µM (active)

CC(C)(C)c1ccc(CN2CCN(C(c3ccccc3)c3ccc(Cl)cc3)CC2)cc1 (stereo not given)
GI50 (BT-549): > 100 µM (inactive)
GI50 (Hs-578T): > 100 µM (inactive)

NCc1nnn(Cc2ccccc2)c1N
GI50 (BT-549): > 100 µM (inactive)
GI50 (Hs-578T): > 100 µM (inactive)

N=c1oc2cc(O)ccc2cc1C(=O)Nc1ccccn1
GI50 (BT-549): 73.6 µM (inactive)
GI50 (Hs-578T): > 100 µM (inactive)

COc1cc(C2C3=C(COC3=O)OC(C)(C)Oc3cc4c(cc32)OCO4)cc(OC)c1OC (stereo not given)
GI50 (BT-549): 6.67 µM (inactive)
GI50 (Hs-578T): 0.301 µM (active)

COc1cccc(-c2nc(O)c3ccccc3n2)c1
GI50 (BT-549): 24.8 µM (inactive)
GI50 (Hs-578T): 19.6 µM (inactive)

N#Cc1c2c(c(Cl)n3c1nc1ccccc13)CCCC2
GI50 (DLD-1): 10.6 µM (inactive)
GI50 (DMS-273): 1.09 µM (active)
GI50 (KM-20L2): 2.49 µM (inactive)
GI50 (XF498): 2.14 µM (inactive)

O=C1c2cscc2C(=O)c2c(OCc3ccccc3)ccc(OCc3ccccc3)c21
GI50 (Hs-578T): > 100 µM (inactive)

Nn1c(=O)n(Cc2ccccc2)n(-c2ccccc2)c1=O
GI50 (DLD-1): > 100 µM (inactive)
GI50 (DMS-273): > 100 µM (inactive)
GI50 (LXFL 529): > 100 µM (inactive)
GI50 (XF498): > 100 µM (inactive)

CC1=CC=CC(C)(C)CC1(O[Si](C)(C)C)C(F)(F)F (stereo not given)
GI50 (BT-549): > 100 µM (inactive)
GI50 (Hs-578T): > 100 µM (inactive)

CCN1C/C(=C\c2ccc(Cl)cc2)c2[nH]c(=O)c(C#N)c(-c3ccc(Cl)cc3)c2C1
GI50 (BT-549): > 100 µM (inactive)

O=C(NNCc1ccco1)c1cc2ccccc2[nH]1
GI50 (BT-549): > 52.2 µM (inactive)
GI50 (Hs-578T): 14.9 µM (inactive)

O=C1CC(C(=O)N2CCCCC2)n2c(=O)n(-c3ccccc3)c(=O)n2C1 (stereo not given)
GI50 (BT-549): > 100 µM (inactive)
GI50 (Hs-578T): > 100 µM (inactive)

CC(=O)c1ccc(NC(=O)/C(CC(=O)c2sc(-c3cccnc3)nc2C)=N/NC(N)=O)cc1
GI50 (KM-20L2): > 100 µM (inactive)
GI50 (LXFL 529): 41.4 µM (inactive)
GI50 (XF498): > 100 µM (inactive)

COC(=O)c1ccccc1C1CN=NC12Cc1c(C)cc(C)cc1C2=O (stereo not given)
GI50 (BT-549): > 100 µM (inactive)
GI50 (Hs-578T): > 100 µM (inactive)

CCOc1ccccc1NC(=O)C1=C(C)NC(C)=C(C(=O)Nc2ccccc2OCC)C1c1ccc2c(c1)OCO2
GI50 (DLD-1): 22.2 µM (inactive)
GI50 (KM-20L2): 26.4 µM (inactive)
GI50 (LXFL 529): 17.9 µM (inactive)
GI50 (XF498): 12.8 µM (inactive)

COC(=O)N1C=CC2=C(C)C3Nc4ccccc4C3C(C)=C2C1 (stereo not given)
GI50 (DLD-1): 1.74 µM (inactive)
GI50 (DMS-273): 0.301 µM (active)
GI50 (KM-20L2): 0.697 µM (active)
GI50 (LXFL 529): 0.953 µM (active)
GI50 (XF498): 2.48 µM (inactive)

CC1(C)[C@@H]2CC[C@@]1(C)[C@H](O)[C@@H]2SCc1ccccc1
GI50 (Hs-578T): 14.2 µM (inactive)

O=c1ccn(C2OC(CO)C(P(=O)(O)O)C2O)c(=O)[nH]1 (stereo not given)
GI50 (BT-549): > 100 µM (inactive)
GI50 (Hs-578T): > 100 µM (inactive)

NC(=S)N/N=C1\NC(=O)/C(=C/c2ccc3c(c2)OCO3)S1
GI50 (BT-549): 25.1 µM (inactive)

COc1ccc2c(CCNS(=O)(=O)c3ccccc3)c(C(C)=O)[nH]c2c1
GI50 (BT-549): 33.8 µM (inactive)
GI50 (Hs-578T): 46 µM (inactive)

CC(=O)CC1(CBr)Nc2ccc([N+](=O)[O-])cc2NC1=O (stereo not given)
GI50 (BT-549): 58.1 µM (inactive)

CC(=O)Oc1cc(Cl)c(C)c2c1[C@H]1CC[C@]3(C)[C@@H](OC(C)=O)CC[C@H]3[C@@H]1CC2
GI50 (BT-549): > 100 µM (inactive)
GI50 (Hs-578T): > 100 µM (inactive)

COc1cc(/C=N\O)nc(-c2ccccn2)c1
GI50 (BT-549): 1.5 µM (inactive)
GI50 (Hs-578T): 47.2 µM (inactive)

CC(C)N(C(C)C)S(=O)(=O)CC12CCC(C/C1=N\O)C2 (stereo not given)
GI50 (BT-549): > 100 µM (inactive)
GI50 (Hs-578T): > 100 µM (inactive)

O=C1c2[nH]c3ccccc3c2CCN2CCCCC12 (stereo not given)
GI50 (BT-549): 27.6 µM (inactive)
GI50 (Hs-578T): 28 µM (inactive)

COc1ccc2c(c1)C(N)=C(c1ccccc1)C2=O
GI50 (BT-549): > 100 µM (inactive)
GI50 (Hs-578T): 11.4 µM (inactive)

O=C1OC(c2ccccc2)=N/C1=C\c1ccc(F)cc1
GI50 (BT-549): 75.3 µM (inactive)
GI50 (Hs-578T): > 100 µM (inactive)

O=[N+]([O-])/C=C1\COCc2cc3c(cc21)OCO3
GI50 (Hs-578T): 26.9 µM (inactive)

COC(=O)c1c(O)ccc2c1c1c(n2Cc2cc(OC)cc(OC)c2)C(=O)c2ccccc2C1=O
GI50 (BT-549): 6.71 µM (inactive)
GI50 (Hs-578T): 7.55 µM (inactive)

CCOC(=O)c1c(Br)c(-c2ccc([N+](=O)[O-])cc2)c(Br)n1C
GI50 (BT-549): > 10 µM (inactive)
GI50 (Hs-578T): 5.06 µM (inactive)

N#CI1OC(C(F)(F)F)(C(F)(F)F)c2ccccc21
GI50 (BT-549): 19.6 µM (inactive)

CC1=CP(=O)(OC(C)C)CC(C)=C1Cl (stereo not given)
GI50 (DLD-1): > 100 µM (inactive)
GI50 (DMS-273): 98.4 µM (inactive)
GI50 (KM-20L2): > 100 µM (inactive)
GI50 (LXFL 529): > 100 µM (inactive)

O=[N+]([O-])c1ccc(Cl)c(/C=N/C23CC4CC(CC(C4)C2)C3)c1
GI50 (BT-549): > 10 µM (inactive)
GI50 (Hs-578T): > 10 µM (inactive)

COc1ccc(/C=C2\C[C@H]3[C@@H]4CC=C5C[C@@H](OC(C)=O)CC[C@]5(C)[C@H]4CC[C@]3(C)C2=O)cc1OC
GI50 (BT-549): 63.1 µM (inactive)
GI50 (Hs-578T): 58.6 µM (inactive)

COc1ccc2nc3ccc(OC)cc3c(SCCCl)c2c1
GI50 (BT-549): 51.4 µM (inactive)
GI50 (Hs-578T): 5.07 µM (inactive)

N#CC1C=Cc2ccccc2N1C(=O)Oc1ccccc1 (stereo not given)
GI50 (BT-549): 53.5 µM (inactive)
GI50 (Hs-578T): 60 µM (inactive)

O=C1CC(=O)NC(NNS(=O)(=O)c2ccccc2)=N1
GI50 (BT-549): > 100 µM (inactive)
GI50 (Hs-578T): > 100 µM (inactive)

O=C(O)CN(CC(=O)O)Cc1ccn(-c2cccc(-n3ccc(CN(CC(=O)O)CC(=O)O)n3)n2)n1
GI50 (BT-549): > 100 µM (inactive)
GI50 (Hs-578T): > 100 µM (inactive)

N#CCC(=O)Nn1c(CC#N)nnc1Cc1ccccc1
GI50 (BT-549): > 100 µM (inactive)
GI50 (Hs-578T): > 100 µM (inactive)

Nc1nc(N)c2c(n1)NC(c1ccccc1)CC(/C=C/c1ccc(Cl)cc1)=N2 (stereo not given)
GI50 (BT-549): 17.5 µM (inactive)
GI50 (Hs-578T): 2.95 µM (inactive)

COc1cc2cc(C(=O)N3CC(CCl)c4c3cc(NC(=O)C(C)(C)c3ccccc3[N+](=O)[O-])c3ccccc43)[nH]c2c(OC)c1OC (stereo not given)
GI50 (BT-549): 8.87 µM (inactive)
GI50 (Hs-578T): 9.33 µM (inactive)

CN1CCc2c(sc3nc(Nc4ccccc4)n(N)c(=O)c23)C1
GI50 (BT-549): > 100 µM (inactive)
GI50 (Hs-578T): > 100 µM (inactive)

COc1c(O)cc2ccnc3c2c1N(C)C=C3
GI50 (BT-549): > 100 µM (inactive)
GI50 (Hs-578T): > 100 µM (inactive)

CCOC(=O)C1C[C@H]2CO[C@H](c3ccccc3)N2C1=O (stereo not given in full)
GI50 (BT-549): > 100 µM (inactive)
GI50 (Hs-578T): > 100 µM (inactive)

C=CCOc1ccc(C2c3c(n[nH]c3O)CC(O)(OCC)C2C(=O)OCC)cc1OC (stereo not given)
GI50 (Hs-578T): > 100 µM (inactive)

CCOC(=O)/C=C\C(C#N)(C#N)/N=C/c1ccsc1
GI50 (BT-549): 5.42 µM (inactive)
GI50 (Hs-578T): 19.5 µM (inactive)

CC(CO)CCNc1ncnc2c1ncn2CCC(=O)O (stereo not given)
GI50 (Hs-578T): > 100 µM (inactive)

O=C1CSC(c2c[nH]c3ccccc23)N1c1ccccc1[N+](=O)[O-] (stereo not given)
GI50 (BT-549): > 100 µM (inactive)

O=C1/C(=C/c2ccc([N+](=O)[O-])cc2)CCCc2ccccc21
GI50 (BT-549): > 100 µM (inactive)
GI50 (Hs-578T): 25.8 µM (inactive)

Cc1cnc2nc(-c3ccc(F)cc3)cc(O)c2c1
GI50 (BT-549): > 100 µM (inactive)
GI50 (Hs-578T): 24.1 µM (inactive)

CSc1ccc2c(c1)c(CCN)c(C)n2Cc1ccccc1Cl
GI50 (BT-549): 3.26 µM (inactive)
GI50 (Hs-578T): 1.67 µM (inactive)

COc1cc2c[n+](C)c3c(c2cc1OC)Cc1cc2c(cc1-3)OCO2
GI50 (BT-549): 90.2 µM (inactive)
GI50 (Hs-578T): > 100 µM (inactive)

COC1=CC(=O)c2c(c(-c3nc(C)cs3)cn2C)C1=O
GI50 (BT-549): 3.97 µM (inactive)
GI50 (Hs-578T): 2.21 µM (inactive)

CC[C@H]1C=CCC[C@@]2(C[C@@H]3CC[C@@H]4[C@H](C(=O)OCCCCCCCCCCCCCCCC(=O)O)[C@]5(CCC[C@@H](C)O5)NC(=[N+]34)N2)O1 [CRAMBESCIDIN 657]
GI50 (BT-549): 0.314 µM (active)
GI50 (Hs-578T): 0.571 µM (active)
